In patent US10376499B2, “Combination therapy for treatment of resistant bacterial infections” (priority 2014, dated 2019):
In brackets after ≈: the same amount, converted by molar mass.

Columns and labels:
[1] = tested on: A. baumannii; assay: MIC90 of common antibiotics+compound 1, 196 contemporary clinical isolates of A. baumannii (Example 4); conditions: B-lactam + Cmpd 1 (4 μg/mL)
[2] = tested on: Enterobacter cloacae; assay: MIC, recent Enterobacteriaceae clinical isolates: Enterobacter cloacae (Examples 7, 11); assay type: cell-based
[3] = tested on: Citrobacter spp; assay: MIC, recent Enterobacteriaceae clinical isolates: Citrobacter spp (Examples 7, 11); assay type: cell-based; conditions: Citrobacter spp, N 7
[4] = tested on: Enterobacteriaceae; assay: organism not typed; assay type: cell-based
[5] = tested on: A. baumannii; assay: MIC, 20 diverse recent strains of A. baumannii (Example 10); assay type: cell-based, Acinetobacter baumannii; conditions: N 20 A. baumannii strains
[6] = tested on: Escherichia coli; assay: MIC, recent Enterobacteriaceae clinical isolates: Escherichia coli (Examples 7, 11); conditions: Escherichia coli
[7] = tested on: Klebsiella pneumoniae; assay: MIC, recent Enterobacteriaceae clinical isolates: Klebsiella pneumoniae (Examples 7, 11)
[8] = tested on: A. baumannii; assay: MIC by broth microdilution (CLSI), panel of 60 A. baumannii clinical isolates (Example 1)
[9] = strain ARC2598, OXA*, TEM-1, OXA-113
[10] = strain ARC2635, OXA-65, OXA-40, TEM-1
[11] = strain ARC2636, OXA-65, OXA-40, TEM-1
[12] = strain ARC2681, OXA-40, TEM-1, OXA-132
[13] = strain ARC2778, OXA-40, TEM-1, OXA-65
[14] = strain ARC2779 (A. baumannii/calcoaceticus complex), OXA-2, VIM-2
[15] = strain ARC2780 (A. baumannii/calcoaceticus complex), OXA*, OXA-2, IMP-1
[16] = strain ARC2782, OXA-66, OXA-23, TEM-1, PER-1
[17] = strain ARC3484, TEM-1, OXA-23, OXA-64
[18] = strain ARC3486, OXA-72, OXA-66, TEM-1
[19] = strain ARC3487, OXA-20, OXA-58, OXA-66
[20] = strain ARC3490, TEM-1+, PSE-2, OXA-69
[21] = strain ARC3491 (A. baumannii/calcoaceticus complex), OXA-215
[22] = strain ARC3492, OXA-40, OXA-132, TEM-1
[23] = strain ARC3495, OXA-40, OXA-109
[24] = strain ARC3513, TEM-1, OXA-23, OXA-65
[25] = strain ARC3658, OXA-66, PER-1, TEM-1, OXA-23
[26] = strain ARC3882, OXA-23, NDM-1, OXA-10*
[27] = strain ARC5073, OXA-23, TEM-1, OXA-64, PER-1
[28] = strain ARC5074, GES*, TEM-1, OXA-51
[29] = strain ARC5076, TEM-1, OXA-23, OXA-66
[30] = strain ARC5084, IMP-4(B), OXA-58, OXA-65
[31] = strain ARC5086, OXA*, TEM-1, OXA-72, OXA-66
[32] = strain ARC5088, OXA-20, OXA-58, OXA-66
[33] = strain ARC5089, PER*, TEM-1, OXA-23, OXA-66

## C[C@H]1[C@H](NC(=O)/C(=N\OC(C)(C)C(=O)O)c2csc(N)n2)C(=O)N1S(=O)(=O)O [Aztreonam]
[1]
  MIC90: >64 µg/mL

## CO/N=C(\C(=O)N[C@@H]1C(=O)N2C(C(=O)[O-])=C(C[N+]3(C)CCCC3)CS[C@H]12)c1csc(N)n1 [Cefepime]
[1]
  MIC90: 32 µg/mL

## CC(C)(O/N=C(\C(=O)N[C@@H]1C(=O)N2C(C(=O)[O-])=C(C[n+]3ccccc3)CS[C@H]12)c1csc(N)n1)C(=O)O [Ceftazidime]
[1]
  MIC90: 32 µg/mL

## C[C@@H](O)[C@H]1C(=O)N2C(C(=O)O)=C(SCCNC=N)C[C@H]12 [Imipenem, (5R,6S)-3-[[2-(formimidoylamino)ethyl]thio]-6-[(R)-1-hydroxyethyl]-7-oxo-1-azabicyclo[3.2.0]hept-2-ene-2-carboxylic acid]
[2]; N 10
  MIC90: 1 µg/mL (≈ 3.34 µM)
[2]; N 10, read-out: MIC50
  MIC50: 0.5 µg/mL (≈ 1.67 µM)
[3]; read-out: MIC50
  MIC50: 0.5 µg/mL (≈ 1.67 µM)
[3]; read-out: MIC90
  MIC90: 4 µg/mL (≈ 13.4 µM)
[4]
  MIC50: 0.5 µg/mL (≈ 1.67 µM)
  MIC90: 4 µg/mL (≈ 13.4 µM)
[5]
  MIC50: 64 µg/mL (≈ 214 µM)
  MIC90: > 64 µg/mL
  MIC Max: > 64 µg/mL
  MIC Min: 0.25 µg/mL (≈ 0.835 µM)
[6]
  MIC50: 0.25 µg/mL (≈ 0.835 µM)
  MIC90: 0.5 µg/mL (≈ 1.67 µM)
[7]
  MIC50: 0.25 µg/mL (≈ 0.835 µM)
  MIC90: 8 µg/mL (≈ 26.7 µM)
[1]
  MIC90: 16 µg/mL

## CCN1CCN(C(=O)N[C@@H](C(=O)N[C@@H]2C(=O)N3[C@@H]2SC(C)(C)[C@@H]3C(=O)O)c2ccccc2)C(=O)C1=O [Piperacillin]
[1]
  MIC90: 32 µg/mL

## colistin
[8]; strain ARC593, OXA-98
  MIC: 0.5 µg/mL
[8]; strain ARC2058, OXA-95
  MIC: 0.5 µg/mL
[8]; strain ARC2461, OXA-66, TEM-1
  MIC: 0.125 µg/mL
[8]; strain ARC2462, TEM-1, OXA-66
  MIC: 0.125 µg/mL
[8]; [9]
  MIC: 0.25 µg/mL
[8]; [10]
  MIC: 0.25 µg/mL
[8]; [11]
  MIC: 0.125 µg/mL
[8]; strain ARC2674, SHV-5, OXA-113
  MIC: 0.25 µg/mL
[8]; strain ARC2675, SHV-5, OXA-113
  MIC: 0.125 µg/mL
[8]; [12]
  MIC: 0.25 µg/mL
[8]; strain ARC2682, SHV-5, OXA-113
  MIC: 0.25 µg/mL
[8]; strain ARC2777, OXA-172, TEM-1
  MIC: 0.5 µg/mL
[8]; [13]
  MIC: 0.25 µg/mL
[8]; [14]
  MIC: 0.25 µg/mL
[8]; [15]
  MIC: 4 µg/mL
[8]; [16]
  MIC: 0.125 µg/mL
[8]; strain ARC2788, OXA-65, TEM-1
  MIC: 0.125 µg/mL
[8]; [17]
  MIC: 0.125 µg/mL
[8]; strain ARC3485, OXA-82
  MIC: 0.25 µg/mL
[8]; [18]
  MIC: 0.25 µg/mL
[8]; [19]
  MIC: 0.25 µg/mL
[8]; strain ARC3488, OXA*, OXA-68
  MIC: 2 µg/mL
[8]; strain ARC3489, OXA*, OXA-68
  MIC: 0.25 µg/mL
[8]; [20]
  MIC: 0.5 µg/mL
[8]; [21]
  MIC: 0.5 µg/mL
[8]; [22]
  MIC: 0.25 µg/mL
[8]; strain ARC3493, OXA-40, OXA-66
  MIC: 32 µg/mL
[8]; strain ARC3494, OXA-65
  MIC: 0.5 µg/mL
[8]; [23]
  MIC: 0.25 µg/mL
[8]; [24]
  MIC: 1 µg/mL
[8]; strain ARC3515, OXA-64, OXA-58
  MIC: 0.25 µg/mL
[8]; strain ARC3657, OXA-130
  MIC: 0.5 µg/mL
[8]; [25]
  MIC: 0.25 µg/mL
[8]; strain ARC3659, OXA-23, OXA*
  MIC: 0.25 µg/mL
[8]; [26]
  MIC: 0.125 µg/mL
[8]; [27]
  MIC: 0.125 µg/mL
[8]; [28]
  MIC: 0.125 µg/mL
[8]; strain ARC5075, SHV-5, OXA-113
  MIC: 0.25 µg/mL
[8]; [29]
  MIC: 0.25 µg/mL
[8]; strain ARC5077, OXA*, OXA-72
  MIC: 0.5 µg/mL
[8]; strain ARC5079, OXA-72, OXA-65
  MIC: 0.125 µg/mL
[8]; strain ARC5080, OXA-71, OXA-40
  MIC: 0.25 µg/mL
[8]; strain ARC5081, OXA-94, OXA-23
  MIC: 0.125 µg/mL
[8]; strain ARC5082, OXA-66, OXA-23
  MIC: 0.5 µg/mL
[8]; strain ARC5083, OXA-66, OXA-23
  MIC: 0.125 µg/mL
[8]; [30]
  MIC: 0.125 µg/mL
[8]; strain ARC5085, OXA*, TEM-1
  MIC: 1 µg/mL
[8]; [31]
  MIC: 0.125 µg/mL
[8]; strain ARC5087, OXA-66, OXA-23
  MIC: 0.25 µg/mL
[8]; [32]
  MIC: 0.125 µg/mL
[8]; [33]
  MIC: 0.125 µg/mL
[8]; strain ARC5091, OXA-82, OXA-23
  MIC: 8 µg/mL
[8]; strain ARC5092, OXA-23, OXA-64
  MIC: >32 µg/mL

## gentamycin
[8]; strain ARC593, OXA-98
  MIC: 8 µg/mL
[8]; strain ARC2058, OXA-95
  MIC: 1 µg/mL
[8]; strain ARC2461, OXA-66, TEM-1
  MIC: >32 µg/mL
[8]; strain ARC2462, TEM-1, OXA-66
  MIC: >32 µg/mL
[8]; [9]
  MIC: 2 µg/mL
[8]; [10]
  MIC: >32 µg/mL
[8]; [11]
  MIC: >32 µg/mL
[8]; strain ARC2674, SHV-5, OXA-113
  MIC: 8 µg/mL
[8]; strain ARC2675, SHV-5, OXA-113
  MIC: >32 µg/mL
[8]; [12]
  MIC: >32 µg/mL
[8]; strain ARC2682, SHV-5, OXA-113
  MIC: >32 µg/mL
[8]; strain ARC2777, OXA-172, TEM-1
  MIC: 16 µg/mL
[8]; [13]
  MIC: >32 µg/mL
[8]; [14]
  MIC: >32 µg/mL
[8]; [15]
  MIC: >32 µg/mL
[8]; [16]
  MIC: >32 µg/mL
[8]; strain ARC2788, OXA-65, TEM-1
  MIC: 16 µg/mL
[8]; [17]
  MIC: >32 µg/mL
[8]; strain ARC3485, OXA-82
  MIC: 1 µg/mL
[8]; [18]
  MIC: >32 µg/mL
[8]; [19]
  MIC: 8 µg/mL
[8]; strain ARC3488, OXA*, OXA-68
  MIC: >32 µg/mL
[8]; strain ARC3489, OXA*, OXA-68
  MIC: >32 µg/mL
[8]; [20]
  MIC: 16 µg/mL
[8]; [21]
  MIC: 2 µg/mL
[8]; [22]
  MIC: >32 µg/mL
[8]; strain ARC3493, OXA-40, OXA-66
  MIC: >32 µg/mL
[8]; strain ARC3494, OXA-65
  MIC: 0.25 µg/mL
[8]; [23]
  MIC: >32 µg/mL
[8]; [24]
  MIC: >32 µg/mL
[8]; strain ARC3515, OXA-64, OXA-58
  MIC: 4 µg/mL
[8]; strain ARC3657, OXA-130
  MIC: 0.25 µg/mL
[8]; [25]
  MIC: >32 µg/mL
[8]; strain ARC3659, OXA-23, OXA*
  MIC: >32 µg/mL
[8]; [26]
  MIC: >32 µg/mL
[8]; [27]
  MIC: 0.5 µg/mL
[8]; [28]
  MIC: 0.125 µg/mL
[8]; strain ARC5075, SHV-5, OXA-113
  MIC: >32 µg/mL
[8]; [29]
  MIC: 8 µg/mL
[8]; strain ARC5077, OXA*, OXA-72
  MIC: >32 µg/mL
[8]; strain ARC5079, OXA-72, OXA-65
  MIC: 8 µg/mL
[8]; strain ARC5080, OXA-71, OXA-40
  MIC: >32 µg/mL
[8]; strain ARC5081, OXA-94, OXA-23
  MIC: 0.25 µg/mL
[8]; strain ARC5082, OXA-66, OXA-23
  MIC: 0.5 µg/mL
[8]; strain ARC5083, OXA-66, OXA-23
  MIC: >32 µg/mL
[8]; [30]
  MIC: >32 µg/mL
[8]; strain ARC5085, OXA*, TEM-1
  MIC: >32 µg/mL
[8]; [31]
  MIC: >32 µg/mL
[8]; strain ARC5087, OXA-66, OXA-23
  MIC: >32 µg/mL
[8]; [32]
  MIC: 8 µg/mL
[8]; [33]
  MIC: >32 µg/mL
[8]; strain ARC5091, OXA-82, OXA-23
  MIC: >32 µg/mL
[8]; strain ARC5092, OXA-23, OXA-64
  MIC: >32 µg/mL
